# Data: ChEMBL document CHEMBL1134503, “Synthesis, antifolate, and antitumor activities of classical and nonclassical 2-amino-4-oxo-5-substituted-pyrrolo[2,3-d]pyrimidines” (J Med Chem, 2001)
# System: CCRF-CEM
# Experiment: Growth inhibition of parental CCRF-CEM cells.
# Format: functional, cell-based
# Details: Homo sapiens
row,SMILES,EC50
1,Nc1nc(O)c2c(CNc3ccc(C(=O)N[C@@H](CCC(=O)O)C(=O)O)cc3)c[nH]c2n1,0.08 µM
2,COc1ccc(OC)c(NCc2c[nH]c3nc(N)nc(O)c23)c1,0.23 µM

# System: CCRF-CEM
# Experiment: Growth inhibition of […], defined mechanisms of MTX resistance during continuous (0-120 h) exposure
# Format: functional, cell-based
# Details: Homo sapiens
row,SMILES,EC50
1,Nc1nc(O)c2c(CNc3ccc(C(=O)N[C@@H](CCC(=O)O)C(=O)O)cc3)c[nH]c2n1,0.31 µM
2,COc1ccc(OC)c(NCc2c[nH]c3nc(N)nc(O)c23)c1,1.53 µM

# System: CCRF-CEM
# Experiment: Growth inhibition of CCRF-CEM cells resistant to MTX
# Format: functional, cell-based
# Details: Homo sapiens
row,SMILES,EC50
1,Nc1nc(O)c2c(CNc3ccc(C(=O)N[C@@H](CCC(=O)O)C(=O)O)cc3)c[nH]c2n1,0.12 µM
2,COc1ccc(OC)c(NCc2c[nH]c3nc(N)nc(O)c23)c1,0.46 µM

# Target: T1, Dihydrofolate reductase (Pneumocystis carinii, UniProt P16184)
# T1 sequence (P16184 whole entry): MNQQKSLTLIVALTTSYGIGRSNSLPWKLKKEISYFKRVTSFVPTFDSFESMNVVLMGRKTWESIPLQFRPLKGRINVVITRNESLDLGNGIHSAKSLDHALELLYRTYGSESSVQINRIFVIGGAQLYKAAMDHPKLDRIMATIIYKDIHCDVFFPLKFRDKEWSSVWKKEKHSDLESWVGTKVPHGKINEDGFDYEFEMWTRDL
# Experiment: Inhibitory activity against Pneumocystis carinii dihydrofolate reductase
# Details: not given
row,SMILES,IC50
1,Nc1nc2[nH]cc(CNc3cccc(Cl)c3)c2c(=O)[nH]1,> 26 µM
2,COc1ccc(NCc2c[nH]c3nc(N)nc(O)c23)c(OC)c1,> 16 µM
3,COc1cc(NCc2c[nH]c3nc(N)nc(O)c23)cc(OC)c1OC,> 22 µM
4,COc1ccc(OC)c(N(C)Cc2c[nH]c3nc(N)[nH]c(=O)c23)c1,> 56 µM
5,COc1cc(OC)cc(N(C)Cc2c[nH]c3nc(N)nc(O)c23)c1,> 87 µM
6,Nc1nc2[nH]cc(CNc3ccc(Cl)cc3Cl)c2c(=O)[nH]1,> 15 µM
7,COc1cc(N(C)Cc2c[nH]c3nc(N)[nH]c(=O)c23)cc(OC)c1OC,> 45 µM
8,COc1ccc(OC)c(NCc2c[nH]c3nc(N)nc(O)c23)c1,> 47 µM
9,Nc1nc(O)c2c(CNc3cc(Cl)ccc3Cl)c[nH]c2n1,> 25 µM
10,COc1cc(NCc2c[nH]c3nc(N)[nH]c(=O)c23)cc(OC)c1,> 20 µM

# Target: T2, Bifunctional dihydrofolate reductase-thymidylate synthase (Toxoplasma gondii, UniProt Q07422)
# T2 sequence (Q07422 whole entry): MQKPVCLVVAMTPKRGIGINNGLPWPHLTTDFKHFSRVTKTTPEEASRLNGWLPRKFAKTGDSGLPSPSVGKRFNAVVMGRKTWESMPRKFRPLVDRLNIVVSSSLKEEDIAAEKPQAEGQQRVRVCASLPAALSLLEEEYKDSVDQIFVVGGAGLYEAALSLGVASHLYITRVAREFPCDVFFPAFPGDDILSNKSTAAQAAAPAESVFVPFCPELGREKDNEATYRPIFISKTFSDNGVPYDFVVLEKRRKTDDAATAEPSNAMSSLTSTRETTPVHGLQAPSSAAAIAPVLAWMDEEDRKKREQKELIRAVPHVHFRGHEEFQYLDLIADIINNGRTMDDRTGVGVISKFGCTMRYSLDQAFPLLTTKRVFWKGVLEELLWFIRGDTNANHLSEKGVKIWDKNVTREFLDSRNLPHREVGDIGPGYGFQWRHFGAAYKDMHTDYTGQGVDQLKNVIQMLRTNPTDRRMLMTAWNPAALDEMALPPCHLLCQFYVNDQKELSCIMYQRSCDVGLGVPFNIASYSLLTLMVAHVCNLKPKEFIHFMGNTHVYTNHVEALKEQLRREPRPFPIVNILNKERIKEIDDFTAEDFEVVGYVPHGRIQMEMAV
# Experiment: Inhibitory activity against Toxoplasma gondii dihydrofolate reductase
# Details: not given
row,SMILES,IC50
1,COc1cc(NCc2c[nH]c3nc(N)nc(O)c23)cc(OC)c1OC,9.3 µM
2,COc1ccc(OC)c(N(C)Cc2c[nH]c3nc(N)[nH]c(=O)c23)c1,10.3 µM
3,COc1cc(OC)cc(N(C)Cc2c[nH]c3nc(N)nc(O)c23)c1,4.2 µM
4,COc1cc(N(C)Cc2c[nH]c3nc(N)[nH]c(=O)c23)cc(OC)c1OC,37 µM
5,Nc1nc(O)c2c(CNc3ccc(C(=O)N[C@@H](CCC(=O)O)C(=O)O)cc3)c[nH]c2n1,0.8 µM
6,Nc1nc(O)c2c(CNc3cc(Cl)ccc3Cl)c[nH]c2n1,0.66 µM
7,Nc1nc2[nH]cc(CNc3cc(Cl)cc(Cl)c3)c2c(=O)[nH]1,4.1 µM

# Target: T3, Dihydrofolate reductase (Rattus norvegicus, UniProt Q920D2)
# T3 sequence (Q920D2 whole entry): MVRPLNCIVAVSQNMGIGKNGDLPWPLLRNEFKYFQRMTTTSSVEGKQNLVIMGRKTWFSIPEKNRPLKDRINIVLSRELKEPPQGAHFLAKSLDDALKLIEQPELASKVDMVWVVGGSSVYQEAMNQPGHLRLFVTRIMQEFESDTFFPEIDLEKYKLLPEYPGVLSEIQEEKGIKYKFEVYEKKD
# Experiment: Inhibition of rat liver dihydrofolate reductase
# Details: not given
row,SMILES,IC50
1,Nc1nc2[nH]cc(CNc3cccc(Cl)c3)c2c(=O)[nH]1,26 µM
2,COc1ccc(NCc2c[nH]c3nc(N)nc(O)c23)c(OC)c1,16 µM
3,COc1cc(NCc2c[nH]c3nc(N)nc(O)c23)cc(OC)c1OC,22 µM
4,COc1ccc(OC)c(N(C)Cc2c[nH]c3nc(N)[nH]c(=O)c23)c1,56 µM
5,COc1cc(OC)cc(N(C)Cc2c[nH]c3nc(N)nc(O)c23)c1,87 µM
6,Nc1nc2[nH]cc(CNc3ccc(Cl)cc3Cl)c2c(=O)[nH]1,15 µM
7,COc1cc(N(C)Cc2c[nH]c3nc(N)[nH]c(=O)c23)cc(OC)c1OC,45 µM
8,COc1ccc(OC)c(NCc2c[nH]c3nc(N)nc(O)c23)c1,47 µM
9,Nc1nc(O)c2c(CNc3cc(Cl)ccc3Cl)c[nH]c2n1,25 µM
10,Nc1nc2[nH]cc(CNc3cc(Cl)cc(Cl)c3)c2c(=O)[nH]1,63 µM
11,COc1cc(NCc2c[nH]c3nc(N)[nH]c(=O)c23)cc(OC)c1,20 µM

# System: FaDu
# Experiment: Relative growth inhibition of FaDu cells at 9 uM drug concentration and in presence of thymidine and hypoxanthine.
# Format: functional, Homo sapiens
# Details: not given
row,SMILES,Relative growth
1,Nc1nc(O)c2c(CNc3ccc(C(=O)N[C@@H](CCC(=O)O)C(=O)O)cc3)c[nH]c2n1,79

# System: FaDu
# Experiment: Relative growth inhibition of FaDu cells in absence of metabolite at 9 uM concentration.
# Format: functional, Homo sapiens
# Details: not given
row,SMILES,Relative growth
1,Nc1nc(O)c2c(CNc3ccc(C(=O)N[C@@H](CCC(=O)O)C(=O)O)cc3)c[nH]c2n1,5

# System: FaDu
# Experiment: Growth inhibition of FaDu human head and neck squamous cell carcinoma cell lines.
# Format: functional, cell-based
# Details: not given
row,SMILES,EC50
1,Nc1nc(O)c2c(CNc3ccc(C(=O)N[C@@H](CCC(=O)O)C(=O)O)cc3)c[nH]c2n1,0.8 µM
2,COc1ccc(OC)c(NCc2c[nH]c3nc(N)nc(O)c23)c1,> 10 µM

# System: FaDu
# Experiment: Relative growth inhibition of FaDu cells at 9 uM drug concentration and in presence of 10 uM Leucovorin.
# Format: functional, Homo sapiens
# Details: not given
row,SMILES,Relative growth
1,Nc1nc(O)c2c(CNc3ccc(C(=O)N[C@@H](CCC(=O)O)C(=O)O)cc3)c[nH]c2n1,64

# System: FaDu
# Experiment: Relative growth inhibition of FaDu cells at 9 uM drug concentration and in presence of 40 uM Thymidine.
# Format: functional, Homo sapiens
# Details: not given
row,SMILES,Relative growth
1,Nc1nc(O)c2c(CNc3ccc(C(=O)N[C@@H](CCC(=O)O)C(=O)O)cc3)c[nH]c2n1,74

# System: FaDu
# Experiment: Relative growth inhibition of FaDu cells at 9 uM drug concentration and in presence of 50 uM Hypoxanthine.
# Format: functional, Homo sapiens
# Details: not given
row,SMILES,Relative growth
1,Nc1nc(O)c2c(CNc3ccc(C(=O)N[C@@H](CCC(=O)O)C(=O)O)cc3)c[nH]c2n1,5

# Target: Thymidylate synthase (Escherichia coli, UniProt C3SWJ7)
# Sequence (C3SWJ7 whole entry): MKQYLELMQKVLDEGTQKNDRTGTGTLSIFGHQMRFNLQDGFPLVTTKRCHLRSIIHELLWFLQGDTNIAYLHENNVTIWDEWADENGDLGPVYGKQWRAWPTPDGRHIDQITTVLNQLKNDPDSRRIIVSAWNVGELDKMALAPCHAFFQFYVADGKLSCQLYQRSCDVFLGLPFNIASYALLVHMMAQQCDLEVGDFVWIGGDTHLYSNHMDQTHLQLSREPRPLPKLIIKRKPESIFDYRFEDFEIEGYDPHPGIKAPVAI
# Experiment: Inhibitory activity against Escherichia coli thymidylate synthase
# Details: not given
row,SMILES,IC50
1,Nc1nc(O)c2c(CNc3ccc(C(=O)N[C@@H](CCC(=O)O)C(=O)O)cc3)c[nH]c2n1,> 120 µM

# Target: Thymidylate synthase (Homo sapiens, UniProt P04818)
# Sequence (P04818 whole entry): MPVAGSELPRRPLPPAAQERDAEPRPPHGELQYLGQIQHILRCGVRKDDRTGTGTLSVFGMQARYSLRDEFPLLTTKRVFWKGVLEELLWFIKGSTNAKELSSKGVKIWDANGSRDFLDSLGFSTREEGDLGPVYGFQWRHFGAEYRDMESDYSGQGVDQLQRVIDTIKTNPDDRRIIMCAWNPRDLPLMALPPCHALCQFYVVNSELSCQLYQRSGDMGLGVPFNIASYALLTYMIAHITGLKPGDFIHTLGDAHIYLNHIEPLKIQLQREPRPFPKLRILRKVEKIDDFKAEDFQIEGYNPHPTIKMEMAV
# Experiment: Inhibitory activity against human thymidylate synthase
# Details: not given
row,SMILES,IC50
1,Nc1nc2[nH]cc(CCc3ccc(C(=O)N[C@@H](CCC(=O)O)C(=O)O)cc3)c2c(=O)[nH]1 [PEMETREXED],5.7 µM
2,Nc1nc(O)c2c(CNc3ccc(C(=O)N[C@@H](CCC(=O)O)C(=O)O)cc3)c[nH]c2n1,46 µM

# Target: Dihydrofolate reductase; T. gondii vs rat (Toxoplasma gondii) (UniProt Q920D2+Q07422)
# Experiment: Ratio of binding to rat liver and Toxoplasma gondii dihydrofolate reductase
# Details: not given
row,SMILES,Ratio
1,Nc1nc(O)c2c(CNc3ccc(Cl)cc3Cl)c[nH]c2n1,> 7
2,COc1cc(N(C)Cc2c[nH]c3nc(N)nc(O)c23)cc(OC)c1OC,> 2
3,COc1ccc(NCc2c[nH]c3nc(N)nc(O)c23)c(OC)c1,> 2.3
4,COc1cc(NCc2c[nH]c3nc(N)nc(O)c23)cc(OC)c1OC,> 2.4
5,COc1cc(OC)cc(N(C)Cc2c[nH]c3nc(N)nc(O)c23)c1,> 21
6,Nc1nc(O)c2c(CNc3cc(Cl)cc(Cl)c3)c[nH]c2n1,> 15.4
7,COc1cc(NCc2c[nH]c3nc(N)nc(O)c23)cc(OC)c1,> 8
8,COc1ccc(OC)c(NCc2c[nH]c3nc(N)nc(O)c23)c1,> 21
9,Nc1nc(O)c2c(CNc3cc(Cl)ccc3Cl)c[nH]c2n1,> 38
10,Nc1nc(O)c2c(CNc3cccc(Cl)c3)c[nH]c2n1,> 7
11,COc1ccc(OC)c(N(C)Cc2c[nH]c3nc(N)nc(O)c23)c1,> 6

# System: CCRF-CEM
# Experiment: Growth inhibition of DHFR-overexpressing cells, defined mechanisms of MTX resistance during continuous (0-120 h) exposure
# Format: functional, cell-based
# Details: Homo sapiens
row,SMILES,EC50
1,Nc1nc(O)c2c(CNc3ccc(C(=O)N[C@@H](CCC(=O)O)C(=O)O)cc3)c[nH]c2n1,0.2 µM
2,COc1ccc(OC)c(NCc2c[nH]c3nc(N)nc(O)c23)c1,0.42 µM

# System: A253 cell line
# Experiment: Growth inhibition of A253 cell lines.
# Format: functional, cell-based
# Details: Homo sapiens
row,SMILES,EC50
1,CN(Cc1cnc2nc(N)nc(N)c2n1)c1ccc(C(=O)N[C@@H](CCC(=O)O)C(=O)O)cc1 [METHOTREXATE],0.019 µM
2,Nc1nc(O)c2c(CNc3ccc(C(=O)N[C@@H](CCC(=O)O)C(=O)O)cc3)c[nH]c2n1,1 µM
3,COc1ccc(OC)c(NCc2c[nH]c3nc(N)nc(O)c23)c1,> 10 µM

# Target: T4, Dihydrofolate reductase (Homo sapiens, UniProt P00374)
# T4 sequence (P00374 whole entry): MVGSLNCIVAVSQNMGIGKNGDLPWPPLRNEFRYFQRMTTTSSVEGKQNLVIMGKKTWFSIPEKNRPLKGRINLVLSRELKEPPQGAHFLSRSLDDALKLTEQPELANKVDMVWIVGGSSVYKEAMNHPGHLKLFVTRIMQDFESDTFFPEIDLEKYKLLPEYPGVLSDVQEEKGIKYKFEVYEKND
# Details: not given
row,SMILES,IC50
1,Nc1nc(O)c2c(CNc3ccc(C(=O)N[C@@H](CCC(=O)O)C(=O)O)cc3)c[nH]c2n1,10 µM
